Test results reported in paper PMC8333053, “Synthesis and biological screening of new thiadiazolopyrimidine-based polycyclic compounds” (Scientific Reports, 2021).
In brackets after ≈: the same amount, converted by molar mass.

Key:
Bacillus cereus UW85 = assay: Antibacterial MIC, two-fold serial dilution; format: cell-based; settings: Gram +ve bacteria, LB broth, 37°C, 24 h, visual (no turbidity), read-out: MIC B. cereus
Description: (§1) The antimicrobial activity of the synthesized thiadiazolopyrimidine compounds was studied toward diverse pathogenic strains, such as gram-positive bacteria (Staphylococcus aureus ATCC 29213 and Bacillus cereus UW85), gram-negative bacteria (Escherichia coli ATCC 12435 and Pseudomonas aeruginosa ATCC 29260), and fungi (Candida albicans and Aspergillus fumigatus 293). The assessment was performed through the two-fold dilution technique using Ampicillin (antibacterial) and Fluconazole (antifungal) as the reference drugs[28],[29]. The minimal inhibitory concentration (MICs, µg/mL) of the synthesized derivatives for prohibiting microbial growth was determined through the visual detection (no turbidity) technique.
(§2) The synthesized thiadiazolopyrimidine-based compounds were evaluated and adopted for antibacterial and antifungal effectiveness using the approved procedure[38],[39].
(§3) Minimal inhibitory concentrations (MICs) were determined by serial dilution technique using 96-multiwell microtiter plates. The investigated compounds were dissolved in DMSO 100% to prepare stock solutions of 5000 µg/mL. Two-fold serial dilutions of the dissolved compounds were performed in LB broth providing eight different concentrations (1250, 625, 312.5, 156, 78, 39, 19.5 µg/mL). Overnight cultures of microorganisms were diluted to 1 ×10^6 CFU/mL in LB broth, and 20 mL of the diluted cultures were added to the test solutions (50 mL) in the wells (one well per concentration per bacterial strain). The plates were incubated at 37°C for 24 h. MIC was detected visually as the least concentration inhibiting bacterial growth (no turbidity) and the activity of the tested compounds was estimated in comparison to ampicillin.

[1] = system: Escherichia coli ATCC 12435; assay: Antibacterial MIC, two-fold serial dilution; format: cell-based; settings: ATCC12435, Gram −ve bacteria, LB broth, 37°C, 24 h, visual (no turbidity)
Description: as §1, §2, §3

[2] = system: Pseudomonas aeruginosa ATCC 29260; assay: Antibacterial MIC, two-fold serial dilution; format: cell-based; settings: ATCC29260, Gram −ve bacteria, LB broth, 37°C, 24 h, visual (no turbidity), read-out: MIC P. aeruginosa
Description: as §1, §2, §3

[3] = system: Staphylococcus aureus ATCC 29213; assay: Antibacterial MIC, two-fold serial dilution; format: cell-based; settings: ATCC29213, Gram +ve bacteria, LB broth, 37°C, 24 h, visual (no turbidity), read-out: MIC S. aureus
Description: as §1, §2, §3

[4] = system: Aspergillus fumigatus 293; assay: Antifungal MIC, two-fold serial dilution; format: cell-based; settings: Fungi, glucose minimal medium, 30°C, 48 h, visual (no turbidity)
Description: as §1, §2
(§4) Minimal inhibitory concentrations (MICs) were determined by serial dilution technique using 96-multiwell microtiter plates. The investigated compounds were dissolved in DMSO 100% to prepare stock solutions of 5000 µg/mL. Two-fold serial dilutions of the dissolved compounds were performed in glucose minimal medium providing eight different concentrations (1250, 625, 312.5, 156, 78, 39, 19.5 µg/mL). The microorganisms were diluted to 1 ×10^3 SFU/mL in glucose minimal medium, and 20 µL of the diluted culture was added to the test solutions (50 µL) in the wells (one well per concentration). The plates were incubated at 30°C for 48 h. MIC was detected visually as the least concentration inhibiting fungal growth (no turbidity) and the activity of the tested compounds was estimated in comparison to fluconazole.

Candida albicans = assay: Antifungal MIC, two-fold serial dilution; format: cell-based; settings: Fungi, glucose minimal medium, 30°C, 48 h, visual (no turbidity)
Description: as §1, §2, §4

[5] = MTT cytotoxicity assay on normal cells; format: cell-based; settings: human, WI38 normal fibroblast cells
Description: The cytotoxicity of the prepared tri-and tetra-cyclic thiadiazolopyrimidine compounds were examined toward various cancer cell lines, such as liver and breast cancer (MCF-7), prostate cancer (PC3), laryngeal carcinoma (Hep-2), carcinoma (HepG2), and standard normal fibroblast cells (WI38) using the MTT assay[33] at the National Research Centre (Egypt). The cytotoxicity (Table 3) toward 50% inhibition of the cell viability (IC50 values) was assessed using 5-fluorouracil (5-Fu) as the standard anticancer drug.
The synthesized compounds were subjected to the MTT cytotoxicity assay on the basis of the cited literature.
MTT cytotoxicity assay: The technical method of MTT assay depends on the reduction of yellow 3-(4,5-methyl-2-thiazolyl)-2,5-diphenyl-2H-tetrazolium bromide (MTT) into purple formazan product, mainly by mitochondrial reductase activity inside the living cells. The cells used in cytotoxicity assay were cultured in RPMI 1640 medium supplemented with 10% fetal calf serum. Cells suspended in the medium (2×10^4 cells/mL) were plated in 96-well culture plates and incubated at 37 °C in a 5% CO2 incubator for 12 hours. The tested sample (2 μL) was added to the cells (2×10^4) in 96-well plates and cultured at 37 °C for 3 days. The cultured cells were mixed with 20 μL of MTT solution and incubated for 4 hours at 37 °C. The supernatant was carefully removed from each well, the formazan crystals were dissolved after addition of DMSO (100 μL) for each well to form the cellular reduction of MTT. After mixing with a mechanical plate mixer, the absorbance of each well was measured by a microplate reader using a test wavelength of 570 nm. The results were expressed as the IC50 values, which inducing 50% inhibition of cell growth of the treated cells when compared to the growth of control cells.

DNA = assay: Bleomycin-dependent DNA damage; format: biochemical; settings: test sample 0.1 mg/mL, λ = 532 nm; mean of three replicates ± SD; ascorbic acid 0.24 mM
Excerpt: Bleomycin-dependent DNA damage. The prepared polycyclic thiadiazolopyrimidine-based compounds were examined through the bleomycin-dependant DNA damage, and the results were compared to that of ascorbic acid as a positive control. The obtained data reflected the ability of these derivatives to protect the DNA from damage. The capability of compounds 16a–b and 17a–b to manifest the best protective effect against DNA damage was indicated by the corresponding absorbance values ranging from 0.031 to 0.053 (Table 4)[35],[36].
Bleomycin-dependent DNA damage experiment: To a mixture of 0.5 mg / mL of DNA, 5 mM magnesium chloride, 50 mM ferric chloride and 0.05 mg / mL bleomycin sulfate was prepared. The test sample was prepared at a concentration of 0.1 mg / mL and added to the mixture. After incubation of the mixture for one hour at 37 °C, 0.05 mL of EDTA (0.1 M) was added to terminate the reaction. In the next step, 0.5 mL of TBA (1% w / v) and 0.5 mL of HCl (25% v / v) were added for colour development and the mixture was heated for 10 minutes at 80 °C. The mixture was centrifuged and the absorbance expressed, the amount of damage to the DNA was measured at λ = 532 nm. L-Ascorbic acid (0.24 mM) was used as a positive control.

Structure (SMILES) | MIC (Bacillus cereus UW85) [µg/mL] | MIC [1] [µg/mL] | MIC [2] [µg/mL] | MIC [3] [µg/mL] | MIC [4] [µg/mL] | MIC (Candida albicans) [µg/mL] | IC50 at 3 days [5] [µM] | Absorbance (bleomycin-dependent DNA damage) (DNA) | melting point [°C]
Nc1nn(-c2ccccc2)c2c1c(=O)nc1scnn12 [Compound 5, 3-Amino-1-phenylpyrazolo[4,3-e][1,3,4]thiadiazolo[3,2-a]pyrimidin-4(1H)-one] | 625 (≈ 2.2 mM) | 1250 (≈ 4.4 mM) | 1250 (≈ 4.4 mM) | 625 (≈ 2.2 mM) | > 1250 | 1250 (≈ 4.4 mM) | 10.9 ± 0.83 | 0.146 ± 0.16 | 254 to 255
COc1ccc(N=Nc2c(N)nn3c(N)c4c(=O)nc5scnn5c4nc23)cc1 [Compound 16b, 6,9-Diamino-10-(4-methoxyphenylazo)-5H-pyrazolo[1′,5′:1,2]pyrimido[5,4-e][1,3,4]thiadiazolo[3,2-a]pyrimidin-5-one] | > 1250 | 19.5 (≈ 0.0477 mM) | 78 (≈ 0.191 mM) | 625 (≈ 1.53 mM) | > 1250 | > 1250 | 62.3 ± 3.03 | 0.031 ± 0.04 | > 320
CC1=C(C(=O)c2ccccc2)C2C(=C(N)O1)C(=O)N=C1SC=NN12 (stereo not drawn) [Compound 8b, 6-Amino-9-benzoyl-8-methyl-5H,9aH-pyrano[3,4-e][1,3,4]thiadiazolo[3,2-a]pyrimidin-5-one] | 312 (≈ 0.918 mM) | 1250 (≈ 3.67 mM) | 312 (≈ 0.918 mM) | 156 (≈ 0.458 mM) | 1250 (≈ 3.67 mM) | 156 (≈ 0.458 mM) | 42.8 ± 1.06 | 0.066 ± 0.05 | 239 to 241
CCOC(=O)c1c(N)nc(N)c2c(=O)nc3scnn3c12 [Compound 7, Ethyl 6,8-diamino-5-oxo-5H-pyrido[3,4-e][1,3,4]thiadiazolo[3,2-a]pyrimidine-9-carboxylate] | 1250 (≈ 4.08 mM) | 625 (≈ 2.04 mM) | 1250 (≈ 4.08 mM) | 1250 (≈ 4.08 mM) | > 1250 | > 1250 | 43.8 ± 0.52 | 0.132 ± 0.19 | 278 to 280
N#CC1=C(c2ccccc2)OC(N)=C2C(=O)N=C3SC=NN3C12 (stereo not drawn) [Compound 9b, 6-Amino-9-cyano-5-oxo-8-phenyl-5H,9aH-pyrano[3,4-e][1,3,4]thiadiazolo[3,2-a]pyrimidine] | 156 (≈ 0.482 mM) | 625 (≈ 1.93 mM) | 625 (≈ 1.93 mM) | 312 (≈ 0.966 mM) | > 1250 | 312 (≈ 0.966 mM) | 48.2 ± 1.47 | 0.083 ± 0.08 | 258 to 260
Cc1cc2nc3c(c(N)n2n1)c(=O)nc1scnn13 [Compound 13, 6-Amino-9-methyl-5H-pyrazolo[1′,5′:1,2]pyrimido[5,4-e][1,3,4]thiadiazolo[3,2-a]pyrimidin-5-one] | > 1250 | 1250 (≈ 4.57 mM) | > 1250 | 1250 (≈ 4.57 mM) | > 1250 | 1250 (≈ 4.57 mM) | 44.4 ± 1.24 | 0.128 ± 0.11 | 304 to 306
